The values below come from patent US20220073536A1 (Rigel Pharmaceuticals, Inc., priority 2003, published 2022).

Assay [1] concerns the target T1, Syk kinase (Homo sapiens, UniProt P43405).
T1 construct: purchased Upstate, Lake Placid N.Y
In words: Syk kinase biochemical fluorescence polarization assay. To be noted: read-out: fp_syk, 11 pt. Here is the method:
Many of the 2,4-pyrimidinediamine compounds were tested for the ability to inhibit Syk kinase catalyzed phosphorylation of a peptide substrate in a biochemical fluorescenced polarization assay with isolated Syk kinase. In this experiment, Compounds were diluted to 1% DMSO in kinase buffer (20 mM HEPES, pH 7.4, 5 mM MgCl2, 2 mM MnCl2, 1 mM DTT, 0.1 mg/mL acetylated Bovine Gamma Globulin). Compound in 1% DMSO (0.2% DMSO final) was mixed with ATP/substrate solution at room temperature. Syk kinase (Upstate, Lake Placid N.Y.) was added to a final reaction volume of 20 uL, and the reaction was incubated for 30 minutes at room temperature. […] EDTA (10 mM final)/anti-phosphotyrosine antibody (1× final)/fluorescent phosphopeptide tracer (0.5× final) was added in FP Dilution Buffer to stop the reaction for a total volume of 40 uL according to manufacturer's instructions (PanVera Corporation) The plate was incubated for 30 minutes in the dark at room temperature. Plates were read on a Polarion fluorescence polarization plate reader (Tecan). Data were converted to amount of phosphopeptide present using a calibration curve generated by competition with the phosphopeptide competitor provided in the Tyrosine Kinase Assay Kit, Green (PanVera Corporation).
(In general: Polarisation of emitted light reports the rotation of a fluorescent probe.)

Assay [2] has as its system cultured human mast cells (CHMC). Nature of the assay: CHMC low cell density IgE activation: tryptase assay. Type of assay: cell-based. The note with it: IgE activation. The procedure, abridged:
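Low-density CHMC, 1000-1500 cells/well in MT; 1 hr 37 °C; anti-IgE challenge 30 min 37 °C; supernatant tryptase via fluorogenic substrate, 30 min RT.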

The test system is the same in assay [3]. Nature of the assay: CHMC low cell density ionomycin activation: tryptase assay. Type of assay: cell-based. The note with it: low cell density CHMC, read-out: LD Tryptase, CHMC, Iono, 3 pt.
Where [4] appears, read: Homo sapiens, Mast cell, low cell density CHMC, tryptase, 3 pt, read-out: LD Tryptase, CHMC, IgE, 3 pt.
The mark [5] stands for this setting: Homo sapiens, Mast cell, low cell density CHMC, tryptase, 8 pt, read-out: LD Tryptase, CHMC, IgE, 8 pt.
The mark [6] stands for this setting: low cell density, 3 pt, read-out: LD Tryptase, CHMC, IgE, 3 pt.
The mark [7] stands for this setting: low cell density, 8 pt, read-out: LD Tryptase, CHMC, IgE, 8 pt.
The mark [8] stands for this setting: Homo sapiens, Mast cell, low cell density CHMC, tryptase release, 8 pt, read-out: LD Tryptase, CHMC, IgE, 8 pt.
Where [9] appears, read: low cell density CHMC, tryptase, 3 pt, read-out: LD Tryptase, CHMC, IgE, 3 pt.

pIC50: −log10 of the molar value. Where two headings read alike, the source gives them in different places.

Consider `CNC(=O)c1cc2cccc(Nc3ncc(F)c(Nc4cc(OC)cc(OC)c4)n3)c2[nH]1` [Compound 368, N4-(3,5-Dimethoxyphenyl)-5-fluoro-N2-[2-(N-methylamino)carbonylindol-7-yl]-2,4-pyrimidinediamine], for which the pIC50 in assay [1] (isolated Syk kinase, 11 pt) is > 5.00; in assay [2] (setting [4]) it was > 5.00.

Consider `COc1cc(Nc2nc(Nc3cccc4cc(C(=O)N(C)CCO)[nH]c34)ncc2F)cc(OC)c1` [Compound 384], for which the pIC50 is > 5.00 in assay [1] (isolated Syk kinase, 11 pt); > 5.00 in assay [2] (setting [4]); > 5.00 in assay [2] (setting [5]).

With `COc1ccc(Nc2nc(Nc3cccc(-c4nnc(C(C)(C)C)o4)c3)ncc2F)cc1OC` [Compound 530, N2-[ (2-tert-Butyl-1,3,4-oxadiazol-5-yl)phenyl]-N4-(3,4-dimethoxyphenyl)-5-fluoro-2,4-pyrimidinediamine], the pIC50 in assay [1] (11 pt), in assay [2] (setting [6]) and in assay [2] (setting [7]) was > 5.00 each time.

Turning to `CNC(=O)COc1ccc(Nc2nc(Nc3ccc4c(ccn4CC(=O)NC)c3)ncc2F)cc1Cl` [Compound 652, N4-[3-Chloro-4-(N-methylamino)carbonylmethyleneoxyphenyl]-5-fluoro-N2-[1-(N-methylamino)carbonylmethyleneindol-5-yl]-2,4-pyrimidinediamine], the pIC50 in assay [1] (isolated Syk kinase, 11 point) was > 5.00; in assay [2] (Homo sapiens, Mast cell, low cell density CHMC, tryptase release, 8 point, read-out: LD Tryptase, CHMC, IgE, 8 pt), > 5.00.

Consider `COc1ccc(Nc2nc(Nc3ccc4c(c3)c(N)nn4C)ncc2F)cc1Cl` [Compound 804, N2-(3-Amino-1-methylindazol-5-yl)-N4-(3-chloro-4-methoxyphenyl)-5-fluoro-2,4-pyrimidinediamine], for which the pIC50 in assay [1] (isolated Syk kinase, 11 pt) was > 5.00; in assay [2] (setting [8]), > 5.00.

Regarding `C[C@@H]1Oc2ccc(Nc3nc(Nc4ccc5c(c4)c(N)nn5C)ncc3F)cc2NC1=O` [Compound 807, (S)-N2-(3-Amino-1-methylindazol-5-yl)-5-fluoro-N4-(2-methyl-3-oxo-4H-benz[1,4]oxazin-6-yl)-2,4-pyrimidinediamine], the pIC50 in assay [1] (isolated Syk kinase, 11 pt) is > 5.00; in assay [2] (setting [8]), > 5.00.

On to `COc1ccc(Nc2nc(Nc3ccc4c(cnn4CCCNC(C)=O)c3)ncc2F)cc1Cl` [Compound 819, N2-[1-[3-(N-Acetylamino)propyl]indazol-5-yl]-N4-(3-chloro-4-methoxyphenyl)-5-fluoro-2,4-pyrimidinediamine], for which the pIC50 was > 5.00 in assay [1] (isolated Syk kinase, 11 pt) and > 5.00 in assay [2] (setting [8]).

With `Cn1c(N2CCOCC2)nc2cc(Nc3ncc(F)c(Nc4ccc(Cl)c(Cl)c4)n3)ccc21` [Compound 942, N4-(3,4-Dichlorophenyl)-5-fluoro-N2-[1-methyl-2-(4-morpholino)benzimidazol-5-yl]-2,4-pyrimidinediamine], the pIC50 in assay [1] (11 pt), in assay [2] (setting [6]) and in assay [2] (setting [7]) was > 5.00 throughout.

Regarding `COc1ccc(Nc2nc(Nc3ccc4c(c3)nc(N3CCOCC3)n4C)ncc2F)cc1Cl` [Compound 943, N4-(3-Chloro-4-methoxyphenyl)-5-fluoro-N2-[1-methyl-2-(4-morpholino)benzimidazol-5-yl]-2,4-pyrimidinediamine], the pIC50 in assay [1] (11 pt) is > 5.00; in assay [2] (Homo sapiens, Mast cell, low cell density, 3 pt, read-out: LD Tryptase, CHMC, IgE, 3 pt), > 5.00.

In the case of `Fc1cnc(Nc2ccc3[nH]c(N4CCOCC4)nc3c2)nc1Nc1ccc(Cl)c(Cl)c1` [Compound 975, N4-(3,4-Dichlorophenyl)-5-fluoro-N2-[2-(4-morpholino)-1H-benzimidazol-5-yl]-2,4-pyrimidinediamine], the pIC50 in assay [1] (11 pt) was > 5.00; in assay [2] (Homo sapiens, Mast cell, low cell density, 8 pt, read-out: LD Tryptase, CHMC, IgE, 8 pt), > 5.00.

Turning to `CN1CCN(c2ccc(Nc3ncc(F)c(NC4CCCCC4)n3)cc2Cl)CC1` [Compound 1191, N2-[3-Chloro-4-(4-methylpiperazino)phenyl]-N4-cyclohexyl-5-fluoro-2,4-pyrimidinediamine], the pIC50 is > 5.00 in assay [1] (isolated Syk kinase, 11 pt) and > 5.00 in assay [2] (setting [4]).

Take `Nc1nc(Nc2nc(Nc3ccc4cn[nH]c4c3)ncc2F)n[nH]1` [Compound 1255]: the pIC50 was > 5.00 in assay [1] (isolated Syk kinase, 11 pt) and > 5.00 in assay [2] (setting [5]).

On to `CCN(CC)CCNC(=O)c1ccc(Nc2ncc(F)c(Nc3ccc(OC)c(Cl)c3)n2)cc1` [Compound 1320, N4-(3-Chloro-4-methoxyphenyl)-5-fluoro-N2-(4-[2-[N,N-diethylamino]ethyleneaminocarbonyl]phenyl)-2,4-pyrimidinediamine], for which the pIC50 in assay [1] (isolated Syk kinase, 11 pt) was > 5.00; in assay [2] (setting [5]), > 5.00.

As to `COc1ccc(Nc2nc(Nc3ccc(C(N)=O)cc3)ncc2F)cc1Cl` [Compound 1321, N2-(4-Aminocarbonylphenyl)-N4-(3-chloro-4-methoxyphenyl)-5-fluoro-2,4-pyrimidinediamine], the pIC50 in assay [1] (isolated Syk kinase, 11 pt) was > 5.00; in assay [2] (setting [5]), > 5.00.

`CC1(C)Oc2ccc(Nc3ncc(F)c(Nc4ccc(C(N)=O)cc4)n3)cc2NC1=O` [Compound 1337]: the pIC50 is > 5.00 in assay [1] (isolated Syk kinase, 11 pt); > 5.00 in assay [2] (setting [4]); > 5.00 in assay [2] (setting [5]).

Take `Cc1noc(COc2ccc(Nc3nc(Nc4ccc(C(N)=O)cc4)ncc3F)cc2)n1` [Compound 1341, N2-(4-Aminocarbonylphenyl)-5-fluoro-N4-(4-[3-methyl-1,2,4-oxadiazol-5-yl]methyleneoxyphenyl)-2,4-pyrimidinediamine]: the pIC50 in assay [1] (isolated Syk kinase, 11 pt) was > 5.00; in assay [2] (setting [4]) it was > 5.00; in assay [2] (setting [5]), > 5.00.

Take `CCN(CC)CCNC(=O)c1ccc(Nc2ncc(F)c(Nc3ccc(OCc4nc(C)no4)cc3)n2)cc1` [Compound 1343, N2-(4-[2-[N,N-Diethylamino]ethyleneaminocarbonyl]phenyl)-5-fluoro-N4-(4-[3-methyl-1,2,4-oxadiazol-5-yl]methyleneoxyphenyl)-2,4-pyrimidinediamine]: the pIC50 in assay [1] (isolated Syk kinase, 11 pt) was > 5.00; in assay [2] (setting [4]), > 5.00; in assay [2] (setting [5]) it was > 5.00.

`Cc1noc(COc2ccc(Nc3nc(Nc4cc(Cl)c(O)c(Cl)c4)ncc3F)cc2)n1` [Compound 1344, N2-(3,5-Dichloro-4-hydroxyphenyl)-5-fluoro-N4-(4-[3-methyl-1,2,4-oxadiazol-5-yl]methyleneoxyphenyl)-2,4-pyrimidinediamine]: the pIC50 was > 5.00 in assay [1] (isolated Syk kinase, 11 pt); > 5.00 in assay [2] (setting [4]); < 5.00 in assay [2] (setting [5]).

For the compound `COc1cc(Cl)cc(Nc2ncc(F)c(Nc3ccc(OCc4nc(C)no4)cc3)n2)c1` [Compound 1345, N2-(3-Chloro-5-methoxyphenyl)-5-fluoro-N4-(4-[3-methyl-1,2,4-oxadiazol-5-yl]methyleneoxyphenyl)-2,4-pyrimidinediamine], the pIC50 in assay [1] (isolated Syk kinase, 11 pt) is > 5.00; in assay [2] (setting [4]), < 5.00.

Consider “N4- (2,2-Difluoro-3-oxo-4H-benz[1,4]oxazin-6-yl)-5-fluoro-N2-[4-[N- (N-methylamino)carbonylmethylene]aminocarbonylphenyl]-2,4-pyrimidinediamine [Compound 1297]”, for which the pIC50 was < 5.00 in assay [3] (tryptase, 3 pt) and > 5.00 in assay [2] (setting [9]).

Regarding “N4- (2,2-Dimethyl-3-oxo-4H-benz[1,4]oxazin-6-yl)-5-fluoro-N2-(1-methylindazol-6-yl)-2,4-pyrimidinediamine p-Hydroxybenzenesulfonic Acid Salt [Compound 768]”, the pIC50 in assay [3] (tryptase, 3 pt) is < 5.00; in assay [2] (setting [9]) it was > 5.00; in assay [2] (low cell density CHMC, tryptase, 8 pt, read-out: LD Tryptase, CHMC, IgE, 8 pt) it was > 5.00.

With “N4- (4-Chloro-3-methoxyphenyl)-5-fluoro-N2-[1-(methoxycarbonylmethylene)indol-5-yl]-2,4-pyrimidinediamine [Compound 645]”, the pIC50 in assay [3] (tryptase release, 3 point) is < 5.00; in assay [2] (low cell density CHMC, tryptase release, 3 point, read-out: LD Tryptase, CHMC, IgE, 3 pt), > 5.00; in assay [2] (low cell density CHMC, tryptase release, 8 point, read-out: LD Tryptase, CHMC, IgE, 8 pt), > 5.00.
